Data on 1 molecule can be found in patent US8865748B2, “Compounds and compositions for stabilizing hypoxia inducible factor-2 alpha as a method for treating cancer” (Akebia Therapeutics Inc., priority 2011, dated 2014).

The test system of assay [1] is endothelial cell marker CD31. Description: Tumor vascularity by CD31 immunohistochemistry in melanoma-bearing mice. Particulars: mice treated with the control antibody; FIG. 14B; p=0.022. In kind it is in vivo.
Assay [2] deals with sVEGFR-1. As to the kind of experiment: sVEGFR-1 production by human peripheral blood monocytes (ELISA, real-time PCR). In kind it is cell-based. Conditions: monocytes stimulated with 100 ng/mL GM-CSF, presence vs. absence of 10 μM stabilizer, FIG. 11B. As for the experimental part:
(§1) Human peripheral blood mononuclear cells (PBMCs) were isolated from fresh peripheral blood leukocyte source packs (American Red Cross, Columbus Ohio) by density gradient centrifugation over Lymphocyte Separation Medium (Cellgro). Monocytes were purified from total PBMCs by layering over FBS. Monocytes were cultured in endotoxin-free RPMI-1640 supplemented with 1% fetal bovine serum (FBS), 0.1% human serum albumin (HSA), and 10 μg/mL of the endotoxin inhibitor polymyxin B. In some experiments, freshly isolated monocytes were differentiated into macrophages by three-day culture in media containing 10% FBS, 1% PSA (penicillin G sodium, streptomycin sulfate, and amphotericin B), and 20 ng/mL M-CSF. Macrophages were serum-starved for 2 hours prior to stimulation. Monocytes or monocyte-derived macrophages were treated for 24 hours with 10 ng/mL GM-CSF, 10 μM disclosed HIF-2α stabilizer, or an equivalent volume of the vehicle controls (PBS or DMSO, respectively). Cell-free culture supernatants were harvested and analyzed for VEGF or sVEGFR-1 by ELISA (R&D Systems).
Human monocytes were left untreated or were stimulated with 100 ng/mL GM-CSF at normoxia or at 0.5% O2. At various time-points, cells were harvested in Trizol reagent (Invitrogen) and RNA was extracted in chloroform and then purified using the RNeasy Minikit (Qiagen). […] Data were analyzed according to the comparative threshold method and normalized against the β-actin internal control transcript. Results are semi-quantitative and represent the fold difference in transcript levels in a particular sample as compared with levels in untreated cells from the same donor.
Since monocyte production of VEGF was dependent on HIF-1α, the inventors herein determined whether selective stabilization of HIF-1α via inhibition of PHD2 would increase monocyte production of VEGF but not sVEGFR-1. […]

For a further assay, the system named is HIF-2α. As to the kind of experiment: Immunoblot for HIF-2α in murine bone marrow-derived macrophages. In kind it is cell-based. Particulars: treated for 18 hours, FIG. 11A. As for the experimental part: (§2) To generate bone marrow-derived macrophages (BDMs), femoral bone marrow was isolated and progenitor cells were plated in RPMI-1640 supplemented with 10% FBS, 1% PSA, 10 μg/mL of polymyxin B, and 20 ng/mL of recombinant murine M-CSF. Cells were cultured for 5 days with the addition of fresh M-CSF every other day. Differentiated BDM were serum-starved for 2 hours and then treated with 100 ng/mL of murine GM-CSF and/or 25 μM the disclosed HIF-2α stabilizer in RPMI-1640 containing 1% FBS and 10 μg/mL polymixin B. Culture supernatants were collected after 72 hours and assayed for VEGF and sVEGFR-1 content by ELISA (R&D Systems).
(§3) In order to confirm the selective upregulation of HIF-2α by the disclosed HIF-2α stabilizer, murine bone marrow-derived macrophages were treated with the disclosed HIF-2α stabilizer for 18 hours, and cells were then lysed and immunoblotted for HIF-1α and HIF-2α.
In general terms: A western blot detects proteins with antibodies after separation by electrophoresis.

The test system of assay [3] is sVEGFR-1. Description: sVEGFR-1 transcription in bone marrow-derived macrophages from LysMcre control and HIF-2α^flox/flox/LysMcre mice. The assay is classed as cell-based. Conditions: FIG. 11F. From the text: HIF-2α^flox/flox mice (originally developed by Dr. Celeste Simon, University of Pennsylvania) and LysMcre recombinase mice (originally developed by Irmgard Foerster, University of Duesseldorf) (both purchased from The Jackson Laboratory, Bar Harbor, Me.) were crossed to generate mice homozygous for both LysMcre and the floxed HIF-2α allele. LysMcre recombinase mice, which express no floxed alleles, were used as controls. Deletion of HIF-2α in HIF-2α^flox/flox/LysMcre macrophages, but not the LysMcre control macrophages, was confirmed at the transcript level by real-time PCR.
To generate bone marrow-derived macrophages (BDMs), femoral bone marrow was isolated and progenitor cells were plated in RPMI-1640 supplemented with 10% FBS, 1% PSA, 10 μg/mL of polymyxin B, and 20 ng/mL of recombinant murine M-CSF. Cells were cultured for 5 days with the addition of fresh M-CSF every other day. […]
Human monocytes were left untreated or were stimulated with 100 ng/mL GM-CSF at normoxia or at 0.5% O2. […] Data were analyzed according to the comparative threshold method and normalized against the β-actin internal control transcript. Results are semi-quantitative and represent the fold difference in transcript levels in a particular sample as compared with levels in untreated cells from the same donor. […]

The subject of a further assay is VEGF. As to the kind of experiment: VEGF production by human peripheral blood monocytes (ELISA, real-time PCR). In kind it is cell-based. Conditions: FIG. 11C. How it is done:
as §1
Human monocytes were left untreated or were stimulated with 100 ng/mL GM-CSF at normoxia or at 0.5% O2. At various time-points, cells were harvested in Trizol reagent (Invitrogen) and RNA was extracted in chloroform and then purified using the RNeasy Minikit (Qiagen). In murine studies, organs harvested at the time of euthanasia were flash-frozen in liquid nitrogen, pulverized in liquid nitrogen, and then dissolved in Trizol. cDNA was generated from 1 μg of RNA using the Superscript First Strand Synthesis System (Invitrogen) and used for real-time PCR using previously described primers and SYBR Green PCR Master Mix (Applied Biosciences), according to the manufacturer's instructions. Data were analyzed according to the comparative threshold method and normalized against the β-actin internal control transcript. Results are semi-quantitative and represent the fold difference in transcript levels in a particular sample as compared with levels in untreated cells from the same donor.
VEGF protein was undetectable in the supernatants of GM-CSF-stimulated monocytes, due to neutralization of VEGF by sVEGFR-1 (FIG. 11C).
Since monocyte production of VEGF was dependent on HIF-1α, the inventors herein determined whether selective stabilization of HIF-1α via inhibition of PHD2 would increase monocyte production of VEGF but not sVEGFR-1. In order to make such determination, human peripheral blood monocytes were stimulated with GM-CSF in the presence of a selective inhibitor of PHD2 which results in the stabilization of HIF-1α.
A general note: In an ELISA, binding on a coated surface is turned into a signal by an enzyme label.

A further assay relates to HIF-1α. As to the kind of experiment: Immunoblot for HIF-1α in murine bone marrow-derived macrophages. The assay is classed as cell-based. Particulars: treated for 18 hours, FIG. 11A. As for the experimental part:
as §2, §3

With `O=C(O)CNC(=O)c1ncc(-c2cccc(F)c2)cc1O` [disclosed HIF-2α stabilizer, {[5-(3-Fluorophenyl)-3-hydroxypyridine-2-carbonyl]amino}acetic acid], the “tumor vascularity (CD31)” value in assay [1] was “decreased tumor vascularity”. The “sVEGFR-1 production, protein level” value in the assay on sVEGFR-1 [2] (p=0.007) is reported as “increased significantly”. Besides, the “sVEGFR-1 production, transcript level” value in the assay with sVEGFR-1 [2] (p=0.033) is given as “increased significantly”. Further, the HIF-2α protein result in the assay with HIF-2α is “increase”. Further, the sVEGFR-1 transcription entry in the assay on sVEGFR-1 [3] (HIF-2α-deficient macrophages, p=0.881) is listed as “not”; in the assay with sVEGFR-1 [3] (control macrophages, p=0.036), “induced”. In addition, the “VEGF production, transcript levels by real-time PCR” value in the assay with VEGF (GM-CSF alone vs. GM-CSF and stabilizer, p=0.556) is listed as “no difference”. Moreover, the “production of VEGF protein (free VEGF ELISA)” value with VEGF (same supernatants as sVEGFR-1, 10 μM stabilizer, p=0.133) is on record as “did not significantly increase”. The HIF-1α protein result in the assay with HIF-1α is given as “no corresponding increase”.
